Our source for the Ki values is US8436159B2, “Glyphosate resistant class I 5-endolpyruvylshikimate-3-phosphate synthase (EPSPS)” (Monsanto Technology LLC, priority 2003, dated 2013).

In the assay the target is T1, maize (Zea mays) class I EPSPS variant TIPI (T102I, P106I), pMON42486 (Zea mays, UniProt O24566, P106I/T102I).
T1 construct: pMON42486
T1 sequence (O24566 1-444 T102I/P106I): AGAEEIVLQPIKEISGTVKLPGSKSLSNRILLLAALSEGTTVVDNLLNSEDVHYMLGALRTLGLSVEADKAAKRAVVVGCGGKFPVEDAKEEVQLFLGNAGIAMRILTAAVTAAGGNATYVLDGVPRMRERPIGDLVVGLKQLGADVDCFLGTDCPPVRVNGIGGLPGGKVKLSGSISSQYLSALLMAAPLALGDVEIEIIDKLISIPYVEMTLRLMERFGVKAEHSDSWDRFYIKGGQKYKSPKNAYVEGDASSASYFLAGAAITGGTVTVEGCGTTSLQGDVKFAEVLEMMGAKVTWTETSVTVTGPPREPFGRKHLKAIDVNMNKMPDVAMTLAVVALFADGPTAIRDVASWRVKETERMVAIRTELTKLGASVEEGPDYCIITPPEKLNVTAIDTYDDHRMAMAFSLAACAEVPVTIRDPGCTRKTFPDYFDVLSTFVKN
Description: EPSPS steady-state kinetics, TIPI variant. It counts as biochemical. The source says:
The double variants of the present invention were made using pMON58452 (FIG. 5) as the template. This pMON58452 EPSPS gene template contains the maize EPSPS double variant T102I, P106T (TIPT) that was constructed by mutagenesis of pMON70467 with the mutagenesis primers mEmut-9-U and mEmut-10-L. The various mutagenesis primer sequences were designed and then were synthesized by Invitrogen Corp., Custom Primers and used in combination in a PCR to create the variant EPSPS coding sequences. The PCR was set up in a 50 μl reaction in the following manner: dH2O 38 μl; 2 mM dNTP 1 μL; 10× buffer 5 μL; pMON58452 1 μL (10 ng); primer-U 2 μL; primer-L 2 μL; pfu Turbo enzyme 1 μL. PCR was carried out on a MJ Research PTC-200 thermal cycler using the following program: Step 1—94° C. for 30 seconds; Step 2—94° C. for 30 seconds; Step 3—55° C. for 1 minute; Step 4—68° C. for 14 minute; Step 5—go to step 2, 16 times; Step 6—End. At the end of the PCR, 1 μl of the restriction enzyme DpnI was added to each 50 μl of PCR reaction and the mixture was incubated at 37° C. for 1 hour. […]

SMILES strings stand for the structures.

Consider `O=C(O)CNCP(=O)(O)O` [glyphosate, N-phosphonomethylglycine], for which the Ki (as a rule, a dissociation constant, usually derived from enzyme kinetics or from competition with a known ligand) worked out at 2.5 ± 0.9 mM.
